# Tested on: P12-Ichikawa
# Test: cell viability relative to DMSO control; higher = less cytotoxic
# Conditions: 48 h
# Outline: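 Cells were incubated for 48 h at 37°C before CellTiter-Glo One luminescence was read. The cells were NOMO1 or SEM (500 cells/well) or P12-Ichikawa (1000 cells/well) leukemia cells, adapted for at least four passages in each medium and seeded in 1536-well plates (5 μl). Dosing used library compounds in DMSO applied by pin over 11 threefold points, 47 μM to 0.79 nM. Viability is the per-plate percentage of DMSO wells, with cell-free wells as background.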
# [1] = HPLM + 10% dialyzed FBS, 0.000781 µM
# [2] = HPLM + 10% dialyzed FBS, 0.00234 µM
# [3] = HPLM + 10% dialyzed FBS, 0.00702 µM
# [4] = HPLM + 10% dialyzed FBS, 0.0211 µM
# [5] = HPLM + 10% dialyzed FBS, 0.0632 µM
# [6] = HPLM + 10% dialyzed FBS, 0.19 µM
# [7] = HPLM + 10% dialyzed FBS, 0.569 µM
# [8] = HPLM + 10% dialyzed FBS, 1.71 µM
# [9] = HPLM + 10% dialyzed FBS, 5.12 µM
# [10] = HPLM + 10% dialyzed FBS, 15.4 µM
# [11] = HPLM + 10% dialyzed FBS, 46.1 µM
# [12] = RPMI 5 mM glucose + 10% FBS, 0.000781 µM
# [13] = RPMI 5 mM glucose + 10% FBS, 0.00234 µM
# [14] = RPMI 5 mM glucose + 10% FBS, 0.00702 µM
# [15] = RPMI 5 mM glucose + 10% FBS, 0.0211 µM
# [16] = RPMI 5 mM glucose + 10% FBS, 0.0632 µM
# [17] = RPMI 5 mM glucose + 10% FBS, 0.19 µM
# [18] = RPMI 5 mM glucose + 10% FBS, 0.569 µM
# [19] = RPMI 5 mM glucose + 10% FBS, 1.71 µM
# [20] = RPMI 5 mM glucose + 10% FBS, 5.12 µM
# [21] = RPMI 5 mM glucose + 10% FBS, 15.4 µM
# [22] = RPMI 5 mM glucose + 10% FBS, 46.1 µM
# [23] = RPMI 5 mM glucose + 10% dialyzed FBS, 0.000781 µM
# [24] = RPMI 5 mM glucose + 10% dialyzed FBS, 0.00234 µM
# [25] = RPMI 5 mM glucose + 10% dialyzed FBS, 0.00702 µM
# [26] = RPMI 5 mM glucose + 10% dialyzed FBS, 0.0211 µM
# [27] = RPMI 5 mM glucose + 10% dialyzed FBS, 0.0632 µM
# [28] = RPMI 5 mM glucose + 10% dialyzed FBS, 0.19 µM
# [29] = RPMI 5 mM glucose + 10% dialyzed FBS, 0.569 µM
# [30] = RPMI 5 mM glucose + 10% dialyzed FBS, 1.71 µM
# [31] = RPMI 5 mM glucose + 10% dialyzed FBS, 5.12 µM
# [32] = RPMI 5 mM glucose + 10% dialyzed FBS, 15.4 µM
# [33] = RPMI 5 mM glucose + 10% dialyzed FBS, 46.1 µM
Compound,cell viability [1] [%],cell viability [2] [%],cell viability [3] [%],cell viability [4] [%],cell viability [5] [%],cell viability [6] [%],cell viability [7] [%],cell viability [8] [%],cell viability [9] [%],cell viability [10] [%],cell viability [11] [%],cell viability [12] [%],cell viability [13] [%],cell viability [14] [%],cell viability [15] [%],cell viability [16] [%],cell viability [17] [%],cell viability [18] [%],cell viability [19] [%],cell viability [20] [%],cell viability [21] [%],cell viability [22] [%],cell viability [23] [%],cell viability [24] [%],cell viability [25] [%],cell viability [26] [%],cell viability [27] [%],cell viability [28] [%],cell viability [29] [%],cell viability [30] [%],cell viability [31] [%],cell viability [32] [%],cell viability [33] [%]
O=C(O)CCCCCC(=O)NN=C1CCCC1,96.2,103,99.4,108,110,107,115,116,111,99.7,73.2,89,103,104,113,105,112,106,120,104,112,105,85.4,98.8,103,100,107,98.1,113,99.3,105,104,109
COC1=CC=C(C=C1)/C2=C(O)/C(=O)C3=C(O)C=C(O)C(=C3O2)CC=C(C)C,115,115,115,117,121,122,121,119,113,87.9,122,108,111,105,110,108,115,114,120,123,67,121,118,110,122,116,127,115,125,128,117,95.8,118
Cc1nc(-c2ccc(OCC(C)C)c(C#N)c2)sc1C(=O)O,114,124,122,117,119,117,112,116,119,106,92.7,,,,,,,,,,,,,,,,,,,,,,
C=CC(=O)Nc1cccc(Sc2nc(Nc3ccc(N4CCN(C)CC4)cc3)ncc2Cl)c1,105,108,109,112,107,121,122,118,115,118,22.2,95.7,107,113,121,116,122,120,115,124,117,19.2,104,115,110,114,118,120,123,124,123,126,26.3
CN(CCOc1ccc(CC2SC(=O)NC2=O)cc1)c1ccccn1 (centres undefined),116,124,113,121,116,115,120,114,114,111,103,123,130,122,116,120,125,129,125,115,113,106,123,123,127,119,116,123,127,118,113,112,97.4
CCNC(=O)CCC/C=C\C[C@@H]1[C@@H](/C=C/C(O)CCc2ccccc2)[C@@H](O)C[C@@H]1O (some centres undefined),117,121,111,111,116,114,111,114,105,106,99.7,109,125,109,130,122,109,111,112,109,103,95,121,120,127,111,110,105,116,106,111,97.3,86.6
CN1CCc2c(c3ccccc3n2Cc2ccc(C(=O)NO)cc2)C1,84.8,83.9,87.7,89.6,91.5,85,89.6,83.6,87.5,68,66.9,81,77.4,78.6,80.7,84.1,73.1,79.9,83.4,84.2,64.1,56.8,82.2,81.3,83.1,78.4,81.9,78,83.3,77.8,86.5,63.3,68.1
CO[C@H]1CCC(O[C@H]2C[C@H]([C@]3(C)CC[C@]4(C[C@H](O)[C@@H](C)[C@@H]([C@@H](C)/C=C(\C)C(=O)[C@H](C)C[C@H](C)C(=O)[O-])O4)O3)O[C@]3(O[C@@H]([C@H]4O[C@@](O)(CO)[C@H](C)C[C@@H]4C)C[C@@H]3C)[C@@H]2C)O[C@@H]1C (some centres undefined),120,124,119,118,111,106,87.3,80.2,48.8,35.7,21.5,124,113,106,113,111,103,99.7,73.1,44.2,28.9,22.7,118,120,109,119,120,119,108,88.8,39.7,25.3,27.1
COc1cc2c(cc1OC)[C@@H]1Cc3ccc(OC)c(OC)c3CN1CC2,110,114,114,113,118,117,112,106,112,99.1,94.5,,,,,,,,,,,,111,117,119,109,110,110,124,117,109,97.2,80.3
CN(C)C/C=C/C(=O)Nc1ccc(C(=O)Nc2cccc(Nc3ncc(Cl)c(-c4c[nH]c5ccccc45)n3)c2)cc1,81.9,85.6,85.8,94.8,82.5,78.6,17.3,10.2,4.95,3.8,3.94,78,85.3,84.2,89,92.9,77.1,12.3,6.62,3.34,2.59,3.22,79.7,82.9,93,97,93.2,77.6,17.9,11.6,5.08,2.82,3.14
CC(=O)N(C)C1(c2ccccc2)CCN(CCC[C@]2(c3ccc(Cl)c(Cl)c3)CCCN(C(=O)c3ccccc3)C2)CC1,115,114,115,116,114,108,91.1,54.9,45.1,33.9,7.84,110,110,110,107,114,119,111,88.4,55.8,41.1,12.1,110,107,110,112,117,108,99.8,79.9,38.9,18.5,11.2
Cc1cn2cc(C(=O)N(C)CCO)cc(N[C@@H]3CCOc4cccc(C)c43)c2n1,107,106,109,112,111,119,118,115,119,110,117,105,119,107,113,118,117,115,123,115,105,114,106,109,105,116,118,114,118,115,110,118,109
Nc1ccc(C(=O)Nc2cccc(-c3nc(N4CCOCC4)c4oc5ncccc5c4n3)c2)cn1,125,122,125,121,120,127,120,124,97.3,100,87.8,118,119,115,114,124,112,103,101,81.5,94.7,77.2,,,,,,,,,,,
O=C(O)c1cc(O)c2c(c1)C(=O)c1cccc(O)c1C2=O,113,117,123,117,107,117,112,110,107,106,99.9,110,120,113,119,119,113,109,120,98,113,102,118,119,113,114,112,112,110,108,99.1,108,99.7
C[C@]12CC[C@H]3[C@@H](CC(=C)\C4=C\C(=O)\C=C/[C@]34C)[C@@H]1CCC2=O,105,107,105,107,107,101,104,103,98,99,79.9,96.3,110,105,102,108,96.2,102,107,101,98,63.7,96.7,107,99.6,101,99.1,95.2,88.5,103,102,94.5,57.4
Nc1n[nH]c2nnc(-c3c(-c4ccccc4)nn4ccccc34)cc12,104,117,112,120,126,126,120,118,90,18.8,10.6,109,116,123,118,134,119,141,138,95.3,17.7,9.91,113,116,128,121,133,134,136,131,132,53.6,17.9
